target: H1047R PIK3CA enzyme (Homo sapiens, UniProt P42336, H1047R); assay: ADP-Glo Biochemical PIK3CA Kinase Assay
Description: Compounds to be assayed were plated in 16 doses of 1:2 serial dilutions (20 nL volume each well) on a 1536-well plate, and the plate warmed to room temperature. […] To the well was added 1 μL of 200 μM ATP and 20 μM of diC8-PIP2 in Substrate Assay Buffer (50 mM HEPES pH7.4, 50 mM NaCl, 5 mM DTT and 0.03% CHAPS) to start the reaction, and the plate was shaken for 10 seconds, then spun briefly at 1500 rpm, and then incubated for 60 minutes at room temperature. The reaction was stopped by adding 2 μL of ADP-Glo reagent (Promega), and spinning briefly at 1500 rpm, and then incubating for 40 minutes. ADP-Glo Detection reagent (Promega) was added and the plate spun briefly at 1500 rpm, then incubated for 30 minutes.

Sequence of H1047R PIK3CA enzyme (P42336 whole entry H1047R): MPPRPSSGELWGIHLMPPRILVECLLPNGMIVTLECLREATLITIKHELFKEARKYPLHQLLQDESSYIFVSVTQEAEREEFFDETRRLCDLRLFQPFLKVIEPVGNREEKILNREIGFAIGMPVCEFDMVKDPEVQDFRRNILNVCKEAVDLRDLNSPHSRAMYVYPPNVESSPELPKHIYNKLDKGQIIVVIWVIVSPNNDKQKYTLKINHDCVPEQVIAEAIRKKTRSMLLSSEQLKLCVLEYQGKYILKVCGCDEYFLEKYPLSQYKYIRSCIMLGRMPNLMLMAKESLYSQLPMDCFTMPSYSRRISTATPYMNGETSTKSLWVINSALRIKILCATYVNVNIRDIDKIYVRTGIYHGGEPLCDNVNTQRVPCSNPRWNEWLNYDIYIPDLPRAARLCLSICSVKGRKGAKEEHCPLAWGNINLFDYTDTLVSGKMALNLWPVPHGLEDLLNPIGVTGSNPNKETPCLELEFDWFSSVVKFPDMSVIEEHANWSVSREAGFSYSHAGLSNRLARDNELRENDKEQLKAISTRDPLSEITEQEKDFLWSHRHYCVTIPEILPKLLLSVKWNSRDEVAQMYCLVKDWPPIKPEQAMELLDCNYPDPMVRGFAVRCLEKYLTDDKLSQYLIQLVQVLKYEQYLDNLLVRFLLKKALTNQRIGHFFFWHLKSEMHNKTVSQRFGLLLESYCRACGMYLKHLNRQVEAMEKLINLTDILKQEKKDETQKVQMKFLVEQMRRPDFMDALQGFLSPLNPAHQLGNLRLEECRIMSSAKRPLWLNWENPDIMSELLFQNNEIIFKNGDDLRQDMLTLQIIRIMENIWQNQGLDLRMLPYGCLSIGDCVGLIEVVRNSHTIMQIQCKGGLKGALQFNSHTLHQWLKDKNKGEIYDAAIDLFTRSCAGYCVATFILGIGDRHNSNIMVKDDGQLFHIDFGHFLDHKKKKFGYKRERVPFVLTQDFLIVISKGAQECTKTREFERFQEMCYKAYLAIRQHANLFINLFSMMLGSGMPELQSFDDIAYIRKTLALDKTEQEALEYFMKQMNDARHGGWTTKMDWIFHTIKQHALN
Sequence of H1047R PIK3CA enzyme (P27986 whole entry partner): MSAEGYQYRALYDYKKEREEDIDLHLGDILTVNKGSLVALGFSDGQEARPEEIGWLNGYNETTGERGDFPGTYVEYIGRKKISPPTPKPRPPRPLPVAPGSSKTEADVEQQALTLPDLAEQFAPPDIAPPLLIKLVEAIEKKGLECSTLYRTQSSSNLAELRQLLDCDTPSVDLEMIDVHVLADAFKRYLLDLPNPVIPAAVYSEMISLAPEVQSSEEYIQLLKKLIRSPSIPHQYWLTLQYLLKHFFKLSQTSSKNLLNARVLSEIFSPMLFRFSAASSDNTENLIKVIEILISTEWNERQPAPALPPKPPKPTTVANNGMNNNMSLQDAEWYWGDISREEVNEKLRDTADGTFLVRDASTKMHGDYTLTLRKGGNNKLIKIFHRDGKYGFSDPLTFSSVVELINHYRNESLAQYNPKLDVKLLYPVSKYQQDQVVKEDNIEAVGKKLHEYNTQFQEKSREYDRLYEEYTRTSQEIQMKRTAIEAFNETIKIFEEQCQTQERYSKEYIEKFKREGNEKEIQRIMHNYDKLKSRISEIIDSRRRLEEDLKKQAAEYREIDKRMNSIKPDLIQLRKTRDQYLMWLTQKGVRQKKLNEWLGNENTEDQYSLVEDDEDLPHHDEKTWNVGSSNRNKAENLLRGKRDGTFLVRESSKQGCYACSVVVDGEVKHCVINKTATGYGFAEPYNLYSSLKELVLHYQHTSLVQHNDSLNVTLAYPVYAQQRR

Row | IC50 [nM] | SMILES
1 | 100 to 500 | N#C[C@H]1C[C@@H](c2cc(NC(=O)c3cc(F)cc(C(F)(F)F)c3)c3c(c2)C(=O)N[C@H]3c2cc(F)ccc2Cl)C1 (single isomer, unassigned) [Compound I-1328]
2 | 100 to 500 | O=C1NC(c2cc(F)ccc2Cl)c2c1cccc2-c1nc2c(C(F)(F)F)cc(F)cc2[nH]1 (centres unmarked) [Compound I-842]
3 | ≤ 100 | O=C(Nc1cc(-c2cnc(-n3ccnc3)nc2)cc2c1C(c1cc(F)ccc1Cl)NC2=O)c1cc(F)cc(C(F)(F)F)c1 (centres unmarked) [Compound I-1482]
4 | 100 to 500 | Cc1ccccc1[C@H]1NC(=O)c2cc(C(=O)NCC(F)F)cc(NC(=O)c3nsc4ccccc34)c21 [Compound I-165]
5 | 1000 to 10000 | N#CCc1cc(NC(=O)N2C[C@@](O)(C(F)(F)F)c3cc(F)ccc32)c2c(c1)C(=O)N[C@H]2c1cc(F)ccc1Cl (single isomer, unassigned) [Compound I-2624]
6 | ≤ 100 | Cc1ccccc1C1NC(=O)c2cc(-c3cnn(C)c3)cc(NC(=O)c3csc4ccccc34)c21 (centres unmarked) [Compound I-115, N-[6-(1-methyl-1H-pyrazol-4-yl)-3-(2-methylphenyl)-1-oxo-2,3-dihydro-1H-isoindol-4-yl]-1-benzothiophene-3-carboxamide]
7 | 10000 to 100000 | O=C1NCc2c(NC(=O)c3csc4ccccc34)cccc21 [Compound I-3]
8 | 10000 to 100000 | O=C1NC(c2cc(F)ccc2Cl)c2c(Nc3cc4ccccc4cn3)cc(Br)cc21 (centres unmarked) [Compound I-1683]
9 | 10000 to 100000 | O=C1NC(c2cc(F)ccc2Cl)c2c(C#Cc3ccccc3)cccc21 (centres unmarked) [Compound I-2097]
10 | 10000 to 100000 | O=C1N[C@H](c2cc(F)ccc2Cl)c2c(Nc3cn[nH]c3)cc(Br)cc21 (racemic) [Compound I-2183]
11 | 10000 to 100000 | Cc1ccccc1C1NC(=O)c2cccc(NC(=O)c3ncc4ccc(Cl)cn34)c21 (centres unmarked) [Compound I-151]
12 | 10000 to 100000 | O=C1NC(c2cc(F)ccc2Cl)c2c(CN3CCCCC3=O)cc(-c3ccc4ncnn4c3)cc21 (centres unmarked) [Compound I-1999]
13 | 10000 to 100000 | CN(C)C(=O)c1cc(-c2ccc3ncnn3c2)cc2c1C(c1cc(F)ccc1Cl)NC2=O (centres unmarked) [Compound I-1857]
14 | ≤ 100 | O=C(Nc1cc(C#CC2COC2)cc2c1C(c1cc(F)ccc1Cl)NC2=O)c1cc(F)cc(C(F)(F)F)c1 (centres unmarked) [Compound I-1223]
15 | 10000 to 100000 | O=C1N[C@H](c2cc(F)ccc2Cl)c2c(NC(=O)[C@@H]3CCC[C@@H](OC(F)(F)F)C3)cccc21 (single isomer, unassigned) [Compound I-2215]
16 | 10000 to 100000 | O=C1N[C@@H](c2cc(F)ccc2Cl)c2c1cc(-c1ccc3ncnn3c1)cc2S(=O)(=O)Cc1ccccc1 (single isomer, unassigned) [Compound I-1906]
17 | 10000 to 100000 | O=C1NC(c2cc(F)ccc2Cl)c2c(NC(=O)N3CCCC(F)C3)cc(Br)cc21 (centres unmarked) [Compound I-491]
18 | 1000 to 10000 | O=C1N[C@H](c2cc(F)ccc2Cl)c2c(NC(=O)N3C[C@H](O)c4cc(F)ccc43)cc(-n3ccccc3=O)cc21 (single isomer, unassigned) [Compound I-2353]
19 | 500 to 1000 | N#Cc1ccc(-c2cc(NC(=O)c3cc(F)cc(C(F)(F)F)c3)c3c(c2)C(=O)N[C@H]3c2cc(F)ccc2Cl)cn1 [Compound I-996]
20 | 10000 to 100000 | O=C(Nc1cc(Br)cc2c1C(c1cc(F)ccc1Cl)NC2=O)NC1(CC(F)(F)F)CC1 (centres unmarked) [Compound I-1755]
21 | 1000 to 10000 | O=C1N[C@H](c2cccc(F)c2F)c2c(NC(=O)c3csc4ccccc34)ccnc21 [Compound I-23]
22 | ≤ 100 | COc1cnc(-c2cc(NC(=O)c3cc(F)cc(C(F)(F)F)c3)c3c(c2)C(=O)NC3c2cc(F)ccc2Cl)cn1 (centres unmarked) [Compound I-1103]
23 | 10000 to 100000 | O=C1NC(c2cc(F)ccc2Cl)c2c(NC(=O)N3CC[C@H](F)[C@@H](F)C3)cc(Br)cc21 (mixture of isomers) [Compound I-720]
24 | 500 to 1000 | O=C1NC(c2cc(F)ccc2Cl)c2c(NC(=O)N3CCCC34CCCC4)cc(Br)cc21 (centres unmarked) [Compound I-2424]

Row | IC50 [nM] | SMILES
25 | ≤ 100 | CC(C)n1cc(-c2cc(NC(=O)c3cc(F)cc(C(F)(F)F)c3)c3c(n2)C(=O)N[C@H]3c2cc(F)ccc2Cl)ccc1=O [Compound I-651]
26 | 1000 to 10000 | O=C(Nc1cc(Br)cc2c1C(c1cc(F)ccc1Cl)NC2=O)c1cc(O)cc(F)c1 (centres unmarked) [Compound I-1283]
27 | 1000 to 10000 | O=C1N[C@H](c2cc(F)ccc2Cl)c2c(NC(=O)N3C[C@](O)(C(F)(F)F)c4cc(F)ccc43)cc(-n3nccn3)cc21 (single isomer, unassigned) [Compound I-2570]
28 | ≤ 100 | O=C(Nc1cc(-c2cnc3ncc(Cl)n3c2)cc2c1C(c1cc(F)ccc1Cl)NC2=O)c1cc(F)cc(C(F)(F)F)c1 (centres unmarked) [Compound I-1934]
29 | 500 to 1000 | CC([C@@H]1C[C@@H](O)CN1C(=O)Nc1cccc2c1C(c1cc(F)ccc1Cl)NC2=O)C(F)(F)F (single isomer, unassigned) [Compound I-2286]
30 | 10000 to 100000 | O=C1NC(c2ccc3ccccc3c2)c2c(NC(=O)c3nsc4ccccc34)cccc21 (centres unmarked) [Compound I-392]
31 | 1000 to 10000 | O=C1NC(c2cc(F)ccc2Cl)c2c(NC(=O)C3CCCC(F)(F)C3)cc(-c3ccc4ncnn4c3)cc21 (centres unmarked) [Compound I-1750]
32 | 1000 to 10000 | Cc1ccccc1C1NC(=O)c2cccc(NC(=O)C3CCc4ccccc43)c21 (centres unmarked) [Compound I-256]
33 | ≤ 100 | O=C(Nc1cc(N2CCC(F)(F)C2)nc2c1C(c1cc(F)ccc1Cl)NC2=O)c1cc(F)cc(C(F)(F)F)c1 (centres unmarked) [Compound I-357]
34 | 500 to 1000 | Cc1ccccc1C1NC(=O)c2c(N(C)C)ncc(NC(=O)c3cc(F)cc(C(F)(F)F)c3)c21 (centres unmarked) [Compound I-243]
35 | 10000 to 100000 | CN1CCCC(C2NC(=O)c3cccc(NC(=O)c4cc(F)cc(C(F)(F)F)c4)c32)C1 (racemic) [Compound I-1769]
36 | 1000 to 10000 | Cc1ccccc1C1NC(=O)c2cccc(NC(=O)N3CCCc4ccccc43)c21 (centres unmarked) [Compound I-55]
37 | ≤ 100 | O=C(Nc1cc(-c2cnc(-c3ncco3)nc2)cc2c1C(c1cc(F)ccc1Cl)NC2=O)c1cc(F)cc(C(F)(F)F)c1 (centres unmarked) [Compound I-1464]
38 | 500 to 1000 | Cc1ccccc1C1NC(=O)c2c(C(=O)O)ccc(NC(=O)c3nsc4ccccc34)c21 (centres unmarked) [Compound I-278]
39 | ≤ 100 | O=C(Nc1cc(-c2ccc3ncccc3c2)cc2c1C(c1cc(F)ccc1Cl)NC2=O)c1cc(F)cc(C(F)(F)F)c1 (centres unmarked) [Compound I-737]
40 | 1000 to 10000 | O=C(Nc1cc(Br)cc2c1C(c1cc(F)ccc1Cl)NC2=O)c1cccc(SC(F)F)c1 (centres unmarked) [Compound I-1386]
41 | 100 to 500 | O=C(Nc1cc(-c2ccc3ncnn3c2)cc2c1[C@H](c1cc(F)ccc1Cl)NC2=O)c1cc(F)cc(OC(F)F)c1 (stereo in doubt) [Compound I-1169]
42 | 500 to 1000 | O=C(Nc1cc(Br)cc2c1C(c1cc(F)ccc1Cl)NC2=O)c1cc(F)cc2c1NCCC2 (centres unmarked) [Compound I-1385]
43 | ≤ 100 | O=C(Nc1cc(-c2cn3ncnc3cn2)cc2c1C(c1cc(F)ccc1Cl)NC2=O)c1cc(F)cc(C(F)(F)F)c1 (centres unmarked) [Compound I-1335]
44 | 500 to 1000 | O=C(Nc1cc(-c2ccc3ncc(F)n3c2)cc2c1[C@@H](c1cc(F)ccc1Cl)NC2=O)c1cc(F)cc(C(F)(F)F)c1 [Compound I-1869]
45 | 10000 to 100000 | O=C1NC(c2cc(F)ccc2Cl)c2c(NC(=O)c3noc4c3COCC4)cccc21 (centres unmarked) [Compound I-2232]
46 | 10000 to 100000 | Cc1ccc2c(c1)N(C(=O)Nc1cccc3c1CN(C)C3=O)CC2 [Compound I-405]
47 | 100 to 500 | Cc1ccccc1C1NC(=O)c2cccc(NC(=O)N3CCc4ccc(Cl)cc43)c21 (centres unmarked) [Compound I-110]

Reference: patent US12581252B2, “Substituted pyrrolo[3,4-b]pyridines as PI3K-α inhibitors” (Relay Therapeutics, Inc., priority 2020, dated 2026)
